One may read the IC50 as the concentration that gives 50% inhibition.

The target in experiment [1] is T1, Recombinant STAT3 protein (STAT3 (G127-I722)) (Homo sapiens, UniProt P40763).
T1 construct: Recombinant STAT3 protein (STAT3 (G127-I722))
The experiment in a line: STAT3 Fluorescence Polarization (FP) Assay. The experiment is classed as binding. To be noted: probe 5-FAM-GpYLPQTV-NH2 2 nM, 45-minute incubation. The method, then: STAT3 Fluorescence Polarization (FP) Assay
An FP assay was developed to determine IC50 values for test substances. Recombinant STAT3 protein (STAT3 (G127-I722)) at 25 nM was combined with a fluorescently labeled, phosphotyrosine peptide probe (5-FAM-GpYLPQTV-NH2) at 2 nM in FP buffer (10 mM HEPES pH 7.4, 50 mM NaCl, 1 mM EDTA, 0.05% Tween 20.2 mM DTT). 50 μL of STAT3-probe mixture was added to serial diluted compounds in black, 96-well plates (Greiner BioOne 655076) to a final concentration of 1% DMSO. Reaction components were mixed, and FP was measured after 45-minute incubation at room temperature using a Tecan Spark multimode plate reader. FP signal (mP) was plotted against the log concentration of the test substances and IC50 values were calculated by nonlinear regression analysis using GraphPad Prism software. For STAT3 FP assay, A=≤100 nM; B=>100-1000 nM; C=>1-10 μM; and D=>10 μM.

The target of experiment [2] is T2, Recombinant STAT6 protein (STAT6 (W123-T658)) (Homo sapiens, UniProt P42226).
T2 construct: Recombinant STAT6 protein (STAT6 (W123-T658))
T2 sequence (P42226 123-658): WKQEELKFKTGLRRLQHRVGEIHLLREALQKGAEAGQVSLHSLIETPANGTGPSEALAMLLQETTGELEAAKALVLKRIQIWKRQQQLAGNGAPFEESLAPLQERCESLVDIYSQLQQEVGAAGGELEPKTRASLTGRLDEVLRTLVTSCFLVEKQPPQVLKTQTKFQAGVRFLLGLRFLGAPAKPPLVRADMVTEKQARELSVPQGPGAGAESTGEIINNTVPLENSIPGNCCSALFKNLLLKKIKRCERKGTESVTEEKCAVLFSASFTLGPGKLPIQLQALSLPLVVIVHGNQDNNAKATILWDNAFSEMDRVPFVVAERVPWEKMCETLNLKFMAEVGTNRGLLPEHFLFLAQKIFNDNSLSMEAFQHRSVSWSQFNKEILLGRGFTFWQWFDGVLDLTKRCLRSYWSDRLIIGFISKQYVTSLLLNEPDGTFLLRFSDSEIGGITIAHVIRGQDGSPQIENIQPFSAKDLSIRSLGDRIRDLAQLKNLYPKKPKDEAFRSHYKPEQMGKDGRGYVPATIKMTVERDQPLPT
Put plainly: STAT6 Fluorescence Polarization (FP) Assay. The experiment is classed as binding. To be noted: probe 5-FAM-Ap[…]-NH2 2 nM, 45-minute incubation. The method, then:
STAT6 Fluorescence Polarization (FP) Assay
An FP assay was developed to determine IC50 values for test substances. Recombinant STAT6 protein (STAT6 (W123-T658)) at 250 nM was combined with a fluorescently labeled, phosphotyrosine peptide probe (5-FAM-Ap[…]-NH2) at 2 nM in FP buffer (10 mM HEPES pH 7.4, 50 mM NaCl, 1 mM EDTA, 0.05% Tween 20, 2 mM DTT). 50 μL of STAT6-probe mixture was added to serial diluted compounds in black, 96-well plates (Greiner BioOne 655076) to a final concentration of 1% DMSO. Reaction components were mixed, and FP was measured after 45-minute incubation at room temperature using a Tecan Spark multimode plate reader. FP signal (mP) was plotted against the log concentration of the test substances and IC50 values were calculated by nonlinear regression analysis using GraphPad Prism software. For STAT6 FP assay, A=≤300 nM; B=>300-3000 nM; C=>3-30 μM; and D=>30 μM.
For orientation: Polarisation of emitted light reports the rotation of a fluorescent probe.

The mark [3] stands for this setting: STAT3 (G127-I722) 25 nM, read-out: STAT3 (FP assay IC50 class).
[4] abbreviates: STAT6 (W123-T658) 250 nM, read-out: STAT6 (FP assay IC50 class).
The mark [5] stands for this setting: STAT3 25 nM, read-out: STAT3 (FP assay IC50).
Setting [6] is: STAT6 250 nM, read-out: STAT6 (FP assay IC50).

Like-named read-outs stand apart in the source and are kept apart here. Some results are limits rather than exact numbers.

T1 sequence (P40763 127-722): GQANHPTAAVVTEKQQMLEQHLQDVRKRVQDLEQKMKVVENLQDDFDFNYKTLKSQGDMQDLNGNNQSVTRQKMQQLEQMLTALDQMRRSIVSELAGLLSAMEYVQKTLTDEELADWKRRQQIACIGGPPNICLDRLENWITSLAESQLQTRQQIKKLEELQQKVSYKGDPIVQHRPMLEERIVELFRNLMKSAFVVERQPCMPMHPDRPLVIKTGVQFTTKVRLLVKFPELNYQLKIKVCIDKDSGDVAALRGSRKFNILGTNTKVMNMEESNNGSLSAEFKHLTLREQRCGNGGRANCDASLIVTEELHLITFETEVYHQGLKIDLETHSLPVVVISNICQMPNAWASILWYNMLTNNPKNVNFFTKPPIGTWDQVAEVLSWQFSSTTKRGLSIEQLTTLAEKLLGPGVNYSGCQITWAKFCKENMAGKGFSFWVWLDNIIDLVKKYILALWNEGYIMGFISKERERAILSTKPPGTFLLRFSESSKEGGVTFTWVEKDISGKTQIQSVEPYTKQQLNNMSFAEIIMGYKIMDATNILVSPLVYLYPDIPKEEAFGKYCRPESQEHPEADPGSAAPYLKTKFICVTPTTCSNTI

`COC(=O)N1CC[C@@H](NC(=O)[C@@H]2CC[C@@H]3CCCC[C@H](NC(=O)c4cc5cc(C(F)P(=O)(O)O)ccc5s4)C(=O)N32)C1` (stereo partly drawn) [Compound 522, (fluoro(2-(((3S,6S,10aS)-3-(((R)-1-(methoxycarbonyl)pyrrolidin-3-yl)carbamoyl)-5-oxodecahydropyrrolo[1,2-a]azocin-6-yl)carbamoyl)benzo[b]thiophen-5-yl)methyl)phosphonic acid]: the IC50 in experiment [1] (setting [3]) fell in the range of 1000 to 10000 nM; in experiment [2] (setting [4]) it was 300 to 3000 nM.
For `O=C(N[C@H]1CCCC[C@H]2CC[C@@H](C(=O)NCc3ccn[nH]3)N2C1=O)c1cc2cc(C(F)(F)P(=O)(O)O)ccc2s1` [Compound 726, ((2-(((3S,6S,10aS)-3-(((212-pyrazol-3-yl)methyl)carbamoyl)-5-oxodecahydropyrrolo [1,2-a]azocin-6-yl)carbamoyl)benzo [b]thiophen-5-yl)difluoromethyl) phosphonic acid] the same measures were 100 to 1000 nM and 3000 to 30000 nM.
On to `O=C(N[C@H]1CCC[C@H]2CC[C@@H](C(=O)Nc3ccc(-c4ccccc4)cc3)N2C1=O)c1ccc2ccc(C(F)(F)P(=O)(O)O)cc2c1` [Compound 29, ((7-(((3S,6S,9aS)-3-([1,1′-biphenyl]-4-ylcarbamoyl)-5-oxooctahydro-1H-pyrrolo[1,2-a]azepin-6-yl)carbamoyl)naphthalen-2-yl)difluoromethyl) phosphonic acid], for which the 50% inhibitory concentration (IC50) in experiment [1] (setting [5]) was 100 to 1000 nM; in experiment [2] (setting [6]) it was 3000 to 30000 nM.
For the compound `O=C(N[C@H]1CCC[C@H]2CC[C@@H](C(=O)N3CC(c4cnccc4N4CC[C@H](F)C4)C3)N2C1=O)c1cc2cc(CP(=O)(O)O)ccc2s1` [Compound 666, ((2-(((3S,6S,9aS)-3-(3-(4-((S)-3-fluoropyrrolidin-1-yl)pyridin-3-yl)azetidine-1-carbonyl)-5-oxooctahydro-1H-pyrrolo[1,2-a]azepin-6-yl)carbamoyl)benzo [b]thiophen-5-yl)methyl) phosphonic acid], the IC50 is less than 100 nM in experiment [1] (setting [3]) and 3000 to 30000 nM in experiment [2] (setting [4]).
On to `Cn1ccc([C@@H]2CN(C(=O)[C@@H]3CC[C@@H]4CCCC[C@H](NC(=O)c5cc6cc(C(F)P(=O)(O)O)ccc6s5)C(=O)N43)C[C@H]2C#N)cc1=O` (single isomer, unassigned) [Compound 227], for which the figures for the IC50 in experiment [1] (setting [3]) and in experiment [2] (setting [4]) were 100 to 1000 nM and 300 to 3000 nM, respectively.
The corresponding values for `O=C(N[C@H]1CCC[C@H]2CC[C@@H](C(=O)N3CC(c4cnccc4N4CCOCC4)C3)N2C1=O)c1cc2cc([C@@H](F)P(=O)(O)O)ccc2s1` (single isomer, unassigned) [Compound 745] are less than 100 nM and 3000 to 30000 nM.
The corresponding values for `COc1cccnc1C1CN(C(=O)[C@@H]2CC[C@@H]3CCC[C@H](NC(=O)c4cc5cc(C(F)(F)P(=O)(O)O)ccc5s4)C(=O)N32)C1` [Compound 826, (difluoro(2-(((3S,6S,9aS)-3-(3-(3-methoxypyridin-2-yl)azetidine-1-carbonyl)-5-oxooctahydro-1H-pyrrolo[1,2-a]azepin-6-yl)carbamoyl)benzo [b]thiophen-5-yl)methyl) phosphonic acid] are 100 to 1000 nM and 300 to 3000 nM.
The corresponding values for `O=C(N[C@H]1CCC[C@H]2CC[C@@H](C(=O)N3CC(c4cncc(F)c4)C3)N2C1=O)c1cc2cc(C(F)P(=O)(O)O)ccc2s1` (stereo partly drawn) [Compound 596, (fluoro(2-(((3S,6S,9aS)-3-(3-(5-fluoropyridin-3-yl)azetidine-1-carbonyl)-5-oxooctahydro-1H-pyrrolo[1,2-a]azepin-6-yl)carbamoyl)benzo [b]thiophen-5-yl)methyl) phosphonic acid] are 100 to 1000 nM and 3000 to 30000 nM.
For `O=C(N[C@H]1CCCC[C@H]2CC[C@@H](C(=O)N3CCC(c4cccnc4)C3)N2C1=O)c1ccc2ccc(CP(=O)(O)O)cc2c1` (stereo partly drawn) [Compound 217, ((7-(((3S,6S,10aS)-5-oxo-3-(3-(pyridin-3-yl)pyrrolidine-1-carbonyl)decahydropyrrolo[1,2-a]azocin-6-yl)carbamoyl)naphthalen-2-yl)methyl)phosphonic acid], the IC50 in experiment [1] (setting [3]) was 1000 to 10000 nM; in experiment [2] (setting [4]), 3000 to 30000 nM.
`C[C@@H]1[C@@H](n2ccnc2)CN1C(=O)[C@@H]1CC[C@@H]2CCC[C@H](NC(=O)c3cc4cc(C(F)(F)P(=O)(O)O)ccc4s3)C(=O)N21` [Compound 81, ((2-(((3S,6S,9aS)-3-((2R,3S)-3-(1H-imidazol-1-yl)-2-methylazetidine-1-carbonyl)-5-oxooctahydro-1H-pyrrolo[1,2-a]azepin-6-yl)carbamoyl)benzo[b]thiophen-5-yl)difluoromethyl) phosphonic acid]: the half-inhibitory concentration (IC50) in experiment [1] (setting [5]) is less than 100 nM; in experiment [2] (setting [6]) it was 300 to 3000 nM.
For `O=Cc1ccncc1C1CN(C(=O)[C@@H]2CC[C@@H]3CCC[C@H](NC(=O)c4cc5cc(CP(=O)(O)O)ccc5s4)C(=O)N32)C1` [Compound 545, ((2-(((3S,6S,9aS)-3-(3-(4-formylpyridin-3-yl)azetidine-1-carbonyl)-5-oxooctahydro-1H-pyrrolo[1,2-a]azepin-6-yl)carbamoyl)benzo[b]thiophen-5-yl)methyl)phosphonic acid], the concentration for half-maximal inhibition (IC50) was in the range of 1000 to 10000 nM in experiment [1] (setting [3]) and 3000 to 30000 nM in experiment [2] (setting [4]).
For `CC(c1cc[nH]c(=O)c1)N(C)C(=O)[C@@H]1CC[C@@H]2CCCC[C@H](NC(=O)c3cc4cc(C(F)(F)P(=O)(O)O)ccc4s3)C(=O)N21` (stereo partly drawn) [Compound 791, (difluoro(2-(((3S,6S,10aS)-3-(methyl(1-(2-oxo-1,2-dihydropyridin-4-yl)ethyl)carbamoyl)-5-oxodecahydropyrrolo [1,2-a]azocin-6-yl)carbamoyl)benzo [b]thiophen-5-yl)methyl) phosphonic acid] the same measures were 100 to 1000 nM and 300 to 3000 nM.
Regarding `N#C[C@@H]1[C@@H](c2ccccc2)CN(C(=O)[C@@H]2CC[C@@H]3CCC[C@H](NC(=O)c4cc5cc([C@H](F)P(=O)(O)O)ccc5s4)C(=O)N32)C12CC2` (single isomer, unassigned) [Compound 919], the IC50 is 1000 to 10000 nM in experiment [1] (setting [3]) and no more than 300 nM in experiment [2] (setting [4]).
For `N#C[C@H]1CN(C(=O)[C@@H]2CC[C@@H]3CCCC[C@H](NC(=O)c4cc5cc(C(F)(F)P(=O)(O)O)ccc5s4)C(=O)N32)C[C@H]1c1ccccc1` (relative stereo) [Compound 92, ((2-(((3S,6S,10aS)-3-(rel-(trans)-3-cyano-4-phenylpyrrolidine-1-carbonyl)-5-oxodecahydropyrrolo [1,2-a]azocin-6-yl)carbamoyl)benzo[b]thiophen-5-yl)difluoromethyl) phosphonic acid], the IC50 in experiment [1] (setting [5]) lay in the range of 100 to 1000 nM; in experiment [2] (setting [6]), 300 to 3000 nM.
For `O=C(N[C@H]1CCC[C@H]2CC[C@@H](C(=O)NCc3cnc4[nH]cnc4c3)N2C1=O)c1cc2cc(C(F)(F)P(=O)(O)O)ccc2s1` [Compound 1118, ((2-(((3S,6S,9aS)-3-(((3H-imidazo[4,5-b]pyridin-6-yl)methyl)carbamoyl)-5-oxooctahydro-1H-pyrrolo[1,2-a]azepin-6-yl)carbamoyl)benzo[b]thiophen-5-yl)difluoromethyl)phosphonic acid], the IC50 in experiment [1] (setting [3]) is less than 100 nM; in experiment [2] (setting [4]), 300 to 3000 nM.

The record behind these values is patent US20250215029A1 (Recludix Pharma, Inc., priority 2022, published 2025).
